Laboratory results from PubChem BioAssay (NCI).
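Tested at 5 concentrations; 48 h exposure; 96-well plates; endpoints linearly interpolated, else capped at highest concentration. TGI: concentration producing complete growth inhibition.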

Columns and labels:
Assay in all cases: NCI tumour cell line growth inhibition, 48 h
UACC-62 melanoma = system: UACC-62 melanoma
HOP-62 NSCLC = system: HOP-62 NSCLC
HCC-2998 colon = system: HCC-2998 colon
IGROV1 ovarian = system: IGROV1 ovarian
OVCAR-5 ovarian = system: OVCAR-5 ovarian
DMS 114 small cell lung = system: DMS 114 small cell lung
HT29 colon = system: HT29 colon
K-562 leukemia = system: K-562 leukemia
KM12 colon = system: KM12 colon
MALME-3M melanoma = system: MALME-3M melanoma
HOP-18 NSCLC = system: HOP-18 NSCLC
P388/ADR leukemia = system: P388/ADR leukemia
SNB-78 CNS = system: SNB-78 CNS
NCI-H460 lung = system: NCI-H460 lung
LOX IMVI melanoma = system: LOX IMVI melanoma
RXF 393 renal = system: RXF 393 renal
M19-MEL melanoma = system: M19-MEL melanoma
SN12C renal = system: SN12C renal
SN12K1 renal = system: SN12K1 renal
NCI-H23 lung = system: NCI-H23 lung
A549 NSCLC = system: A549 NSCLC
KM20L2 colon = system: KM20L2 colon
SF-295 CNS = system: SF-295 CNS
MOLT-4 leukemia = system: MOLT-4 leukemia
U251 CNS = system: U251 CNS
HCT-15 colon = system: HCT-15 colon
XF 498 CNS = system: XF 498 CNS
SW-620 colon = system: SW-620 colon
SK-OV-3 ovarian = system: SK-OV-3 ovarian
SNB-75 CNS = system: SNB-75 CNS
OVCAR-8 ovarian = system: OVCAR-8 ovarian
EKVX NSCLC = system: EKVX NSCLC
UO-31 renal = system: UO-31 renal
SK-MEL-28 melanoma = system: SK-MEL-28 melanoma
SK-MEL-2 melanoma = system: SK-MEL-2 melanoma
RPMI-8226 leukemia = system: RPMI-8226 leukemia
UACC-257 melanoma = system: UACC-257 melanoma
CAKI-1 renal = system: CAKI-1 renal
OVCAR-3 ovarian = system: OVCAR-3 ovarian
SF-539 CNS = system: SF-539 CNS
HCT-116 colon = system: HCT-116 colon
NCI/ADR-RES ovarian = system: NCI/ADR-RES ovarian
DLD-1 colon = system: DLD-1 colon
A498 renal = system: A498 renal
HOP-92 NSCLC = system: HOP-92 NSCLC
HL-60(TB) leukemia = system: HL-60(TB) leukemia
MCF7 breast = system: MCF7 breast
COLO 205 colon = system: COLO 205 colon
NCI-H226 lung = system: NCI-H226 lung
SK-MEL-5 melanoma = system: SK-MEL-5 melanoma
OVCAR-4 ovarian = system: OVCAR-4 ovarian
P388 leukemia = system: P388 leukemia
CCRF-CEM leukemia = system: CCRF-CEM leukemia
DMS 273 small cell lung = system: DMS 273 small cell lung
NCI-H522 lung = system: NCI-H522 lung
SNB-19 CNS = system: SNB-19 CNS
SF-268 CNS = system: SF-268 CNS
ACHN renal = system: ACHN renal
MDA-MB-435 = system: MDA-MB-435
M14 melanoma = system: M14 melanoma
MDA-MB-231 breast = system: MDA-MB-231 breast
PC-3 prostate = system: PC-3 prostate
TK-10 renal = system: TK-10 renal
MDA-N = system: MDA-N
LXFL 529 NSCLC = system: LXFL 529 NSCLC
SR leukemia = system: SR leukemia
T-47D breast = system: T-47D breast
HS 578T breast = system: HS 578T breast
DU-145 prostate = system: DU-145 prostate
BT-549 breast = system: BT-549 breast
786-0 renal = system: 786-0 renal

## Nc1nc2[nH]c(=O)cnc2c(=O)[nH]1
UACC-62 melanoma
  TGI: > 125 µM
HOP-62 NSCLC
  TGI: > 125 µM
HCC-2998 colon
  TGI: > 125 µM
IGROV1 ovarian
  TGI: > 125 µM
OVCAR-5 ovarian
  TGI: > 107 µM
DMS 114 small cell lung
  TGI: > 125 µM
HT29 colon
  TGI: > 125 µM
K-562 leukemia
  TGI: > 125 µM
KM12 colon
  TGI: > 125 µM
MALME-3M melanoma
  TGI: > 125 µM
HOP-18 NSCLC
  TGI: > 5.8 µM
P388/ADR leukemia
  TGI: > 125 µM
SNB-78 CNS
  TGI: > 125 µM
NCI-H460 lung
  TGI: > 125 µM
LOX IMVI melanoma
  TGI: > 125 µM
RXF 393 renal
  TGI: > 125 µM
M19-MEL melanoma
  TGI: > 85.2 µM
SN12C renal
  TGI: > 125 µM
SN12K1 renal
  TGI: > 125 µM
NCI-H23 lung
  TGI: > 125 µM
A549 NSCLC
  TGI: > 125 µM
KM20L2 colon
  TGI: > 91.4 µM
SF-295 CNS
  TGI: > 125 µM
MOLT-4 leukemia
  TGI: > 125 µM
U251 CNS
  TGI: > 125 µM
HCT-15 colon
  TGI: > 78.9 µM
XF 498 CNS
  TGI: > 125 µM
SW-620 colon
  TGI: > 125 µM
SK-OV-3 ovarian
  TGI: > 125 µM
SNB-75 CNS
  TGI: > 125 µM
OVCAR-8 ovarian
  TGI: > 125 µM
EKVX NSCLC
  TGI: > 125 µM
UO-31 renal
  TGI: > 125 µM
SK-MEL-28 melanoma
  TGI: > 125 µM
SK-MEL-2 melanoma
  TGI: > 125 µM
RPMI-8226 leukemia
  TGI: > 125 µM
UACC-257 melanoma
  TGI: > 125 µM
CAKI-1 renal
  TGI: > 125 µM
OVCAR-3 ovarian
  TGI: > 125 µM
SF-539 CNS
  TGI: > 125 µM
HCT-116 colon
  TGI: > 125 µM
NCI/ADR-RES ovarian
  TGI: > 125 µM
DLD-1 colon
  TGI: > 125 µM
A498 renal
  TGI: > 125 µM
HOP-92 NSCLC
  TGI: > 125 µM
HL-60(TB) leukemia
  TGI: > 125 µM
MCF7 breast
  TGI: > 125 µM
COLO 205 colon
  TGI: > 125 µM
NCI-H226 lung
  TGI: > 125 µM
SK-MEL-5 melanoma
  TGI: > 125 µM
OVCAR-4 ovarian
  TGI: > 125 µM
P388 leukemia
  TGI: > 125 µM
CCRF-CEM leukemia
  TGI: > 125 µM
DMS 273 small cell lung
  TGI: > 125 µM
NCI-H522 lung
  TGI: > 19.8 µM
SNB-19 CNS
  TGI: > 125 µM
SF-268 CNS
  TGI: > 125 µM

## COc1cc(/C=C/C(=O)Oc2ccc(NC(C)=O)cc2)ccc1C(=O)OCc1ccccc1
ACHN renal
  TGI: > 100 µM
UACC-62 melanoma
  TGI: > 97.1 µM
HOP-62 NSCLC
  TGI: > 91.3 µM
HCC-2998 colon
  TGI: > 100 µM
IGROV1 ovarian
  TGI: > 93.2 µM
OVCAR-5 ovarian
  TGI: > 100 µM
DMS 114 small cell lung
  TGI: > 100 µM
MDA-MB-435
  TGI: > 100 µM
M14 melanoma
  TGI: > 100 µM
HT29 colon
  TGI: > 100 µM
K-562 leukemia
  TGI: > 100 µM
KM12 colon
  TGI: > 100 µM
MALME-3M melanoma
  TGI: > 100 µM
HOP-18 NSCLC
  TGI: > 100 µM
P388/ADR leukemia
  TGI: > 100 µM
MDA-MB-231 breast
  TGI: > 100 µM
PC-3 prostate
  TGI: > 100 µM
TK-10 renal
  TGI: > 100 µM
SNB-78 CNS
  TGI: > 89.4 µM
NCI-H460 lung
  TGI: > 100 µM
LOX IMVI melanoma
  TGI: > 100 µM
RXF 393 renal
  TGI: 58.3 µM
M19-MEL melanoma
  TGI: > 100 µM
SN12C renal
  TGI: > 100 µM
SN12K1 renal
  TGI: > 100 µM
NCI-H23 lung
  TGI: > 100 µM
A549 NSCLC
  TGI: > 100 µM
KM20L2 colon
  TGI: > 100 µM
MDA-N
  TGI: > 100 µM
SF-295 CNS
  TGI: > 89.3 µM
MOLT-4 leukemia
  TGI: > 100 µM
U251 CNS
  TGI: > 78.7 µM
LXFL 529 NSCLC
  TGI: > 100 µM
SR leukemia
  TGI: > 100 µM
HCT-15 colon
  TGI: > 100 µM
XF 498 CNS
  TGI: > 70.2 µM
SW-620 colon
  TGI: > 100 µM
T-47D breast
  TGI: > 100 µM
SK-OV-3 ovarian
  TGI: > 92 µM
SNB-75 CNS
  TGI: 47.6 µM
OVCAR-8 ovarian
  TGI: > 100 µM
EKVX NSCLC
  TGI: > 100 µM
UO-31 renal
  TGI: > 100 µM
SK-MEL-28 melanoma
  TGI: > 100 µM
HS 578T breast
  TGI: > 100 µM
SK-MEL-2 melanoma
  TGI: 99.8 µM
RPMI-8226 leukemia
  TGI: > 100 µM
UACC-257 melanoma
  TGI: > 100 µM
CAKI-1 renal
  TGI: > 100 µM
OVCAR-3 ovarian
  TGI: > 100 µM
SF-539 CNS
  TGI: 60.8 µM
HCT-116 colon
  TGI: > 100 µM
NCI/ADR-RES ovarian
  TGI: > 100 µM
DLD-1 colon
  TGI: > 100 µM
A498 renal
  TGI: > 100 µM
DU-145 prostate
  TGI: > 100 µM
HOP-92 NSCLC
  TGI: > 100 µM
HL-60(TB) leukemia
  TGI: > 100 µM
MCF7 breast
  TGI: > 100 µM
BT-549 breast
  TGI: > 100 µM
786-0 renal
  TGI: > 100 µM
COLO 205 colon
  TGI: > 100 µM
NCI-H226 lung
  TGI: > 100 µM
SK-MEL-5 melanoma
  TGI: > 100 µM
OVCAR-4 ovarian
  TGI: > 100 µM
P388 leukemia
  TGI: > 100 µM
CCRF-CEM leukemia
  TGI: > 100 µM
DMS 273 small cell lung
  TGI: > 100 µM
NCI-H522 lung
  TGI: > 100 µM
SNB-19 CNS
  TGI: > 91.2 µM
SF-268 CNS
  TGI: > 100 µM
